Source: patent US10493108B2, “Non-invasive in vivo imaging and methods for treating diabetes” (Biocrine AB, priority 2007, dated 2019)

Key:
[1] = system: islet cells; conditions: direct mechanism on islet cells; cited from earlier work
[2] = system: β-cells of RIP-GFP islet grafts; conditions: mouse, in vivo
[3] = Blood glucose after intravenous alloxan; conditions: alloxan 75 mg/kg i.v., after 24 h, n=6
[4] = system: islet cells (β-cells); assay: In vivo recording of [Ca2+]i changes in islets engrafted in the anterior chamber of the eye (Fluo-4/Fura-Red ratio); design: species or system mouse; conditions: glibenclamide 1 mg/kg i.v.; remained high throughout the recording
[5] = Blood glucose after intravenous glibenclamide; format: in vivo, mouse; conditions: glibenclamide intravenously (1 mg/kg, tail vein); data not shown

FC(F)OC(Cl)C(F)(F)F (stereo not drawn) [Isoflurane]
glucose stimulated insulin release [1]: inhibit

O=C1NC(=O)C(=O)C(=O)N1 [alloxan]
GFP fluorescence of islet grafts [2]: substantial loss of GFP fluorescence | annexin V-APC labelling of islet grafts [2]: strong labelling | blood glucose concentration [3]: 25.0 ± 1.3 mmol/L

COc1ccc(Cl)cc1C(=O)NCCc1ccc(S(=O)(=O)NC(=O)NC2CCCCC2)cc1 [glibenclamide]
[Ca2+]i in islet cells (Fluo-4/Fura-Red fluorescence ratio) [4]: prominent rises | blood glucose levels [5]: decreased blood glucose levels
